Laboratory results published in ChEMBL document CHEMBL5113481, “Design, synthesis and biological evaluation of quinoline-2-carbonitrile-based hydroxamic acids as dual tubulin polymerization and histone deacetylases inhibitors” (Eur J Med Chem, 2022).
Activity calls are given as the source filed them. No cut-off for these calls is given here.

What was measured:
NCI-N87 = experiment: Antiproliferative activity against human NCI-N87 cells after 72 hrs by CellTiter Glo assay; type: functional, cell-based; conditions: NCI-N87, 72 h
HCT-116 = experiment: Antiproliferative activity against human HCT-116 cells after 72 hrs by CellTiter Glo assay; type: functional, cell-based; conditions: Homo sapiens, HCT-116; time 72 hrs
K562 = experiment: Antiproliferative activity against human K562 cells after 72 hrs by CellTiter Glo assay; type: functional, cell-based; conditions: K562, 72 h
MIA PaCa-2 = experiment: Antiproliferative activity against human MIA PaCa-2 cells after 72 hrs by CellTiter Glo assay; type: functional, cell-based; conditions: MIA PaCa-2, 72 h
A549 = experiment: Antiproliferative activity against human A549 cells after 72 hrs by CellTiter Glo assay; type: functional, cell-based; conditions: A549, 72 h
MCF7 = experiment: Antiproliferative activity against human MCF7 cells after 72 hrs by CellTiter Glo assay; type: functional, cell-based; conditions: MCF7, 72 h
HT-29 = experiment: Induction of mitochondrial dysfunction in human HT-29 cells at 2 nM measured after 48 hrs by JC-1 staining based flow cytometry; type: functional, cell-based
Histone deacetylase 11 = molecular target: T1, Histone deacetylase 11 (Homo sapiens, UniProt Q96DB2); experiment: Inhibition of HDAC11 (unknown origin) measured by fluorometry assay
T1 sequence (Q96DB2 whole entry): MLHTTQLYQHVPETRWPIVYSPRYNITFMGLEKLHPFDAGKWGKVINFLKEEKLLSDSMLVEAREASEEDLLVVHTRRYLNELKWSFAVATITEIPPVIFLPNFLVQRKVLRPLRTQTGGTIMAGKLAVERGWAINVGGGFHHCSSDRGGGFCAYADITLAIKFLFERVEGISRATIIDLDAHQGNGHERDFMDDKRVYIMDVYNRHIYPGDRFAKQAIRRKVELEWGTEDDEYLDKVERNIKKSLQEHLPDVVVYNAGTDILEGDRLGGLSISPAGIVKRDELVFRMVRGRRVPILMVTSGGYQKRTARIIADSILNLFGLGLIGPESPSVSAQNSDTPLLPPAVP

[1] = molecular target: T2, Histone deacetylase 8 (Homo sapiens) (UniProt Q9BY41); experiment: Inhibition of HDAC8 in human HT-29 cells assessed as increase in SMC3 acetylation at 0.5 to 100 nM measured after 30 mins by western blot analysis; type: cell-based; conditions: dose 0.5-100 nM
T2 sequence (whole entry): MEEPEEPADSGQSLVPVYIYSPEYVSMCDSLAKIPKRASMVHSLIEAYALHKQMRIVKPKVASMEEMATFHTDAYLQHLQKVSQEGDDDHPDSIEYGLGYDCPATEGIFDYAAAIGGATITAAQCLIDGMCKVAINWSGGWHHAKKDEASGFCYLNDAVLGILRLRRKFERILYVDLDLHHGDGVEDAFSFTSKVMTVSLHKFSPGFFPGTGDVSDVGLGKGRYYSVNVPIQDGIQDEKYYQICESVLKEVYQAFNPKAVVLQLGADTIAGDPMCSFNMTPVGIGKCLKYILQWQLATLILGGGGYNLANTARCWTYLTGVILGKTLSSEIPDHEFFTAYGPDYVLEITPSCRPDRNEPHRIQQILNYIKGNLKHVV

Tubulin (Homo sapiens) [2] = molecular target: T3, Tubulin (Homo sapiens) (UniProt P68371+Q9H4B7+P0DPH7+P68366+Q13509+Q71U36+P04350+Q3ZCM7+P07437+P68363+Q9BQE3+Q6PEY2+Q13885+Q9BVA1+Q9BUF5); experiment: Inhibition of tubulin polymerization (unknown origin) at 10 uM in presence of GTP; type: protein-complex assay
Tubulin (Homo sapiens) [3] = molecular target: T3, Tubulin (Homo sapiens); experiment: Inhibition of tubulin polymerization in human HeLa cells assessed as microtubule network polymerization at 250 nM after 30 mins by immunofluorescence analysis; type: cell-based
[4] = Metabolic stability in rat liver microsomes assessed as intrinsic clearance per mg protein measured upto 6 hrs in presence of NADPH generating system by HPLC-MS/MS analysis; type: ADME, Microsome; conditions: read-out: CLH
[5] = Toxicity in C57BL/6 mouse allografted with mouse MCA-205 cells assessed as effect on body weight at 0.1 to 0.5 mg/kg, IT(Intratumoral); type: organism-based; conditions: in vivo, other, dose 0.1-0.5 mg/kg
[6] = Antitumor activity against mouse MCA-205 cells allografted in female C57BL/6 mouse assessed as tumor regression at […], IT(Intratumoral); type: functional

Q: Which IC50 (NCI-N87) does the source give for `COc1ccc(N(C)c2cc(C#N)nc3ccccc23)cc1/C=C/C(=O)NO` here?
A: 0.1 nM

Q: What about the GI50 (HCT-116) of the same molecule?
A: 0.5 nM

Q: And the IC50 (K562)?
A: 0.35 nM

Q: What about the IC50 (MIA PaCa-2) of the same molecule?
A: 0.94 nM

Q: What about the IC50 (A549) of the same molecule?
A: 0.84 nM

Q: And the IC50 (MCF7)?
A: 0.78 nM

Q: And the Activity (HT-29)?
A: Active

Q: What about the IC50 (Histone deacetylase 11) of the same molecule?
A: 1900 nM

Q: And the inhibition [1]?
A: Active

Q: And the inhibition (Tubulin (Homo sapiens) [2])?
A: Active

Q: What about the inhibition (Tubulin (Homo sapiens) [3]) of the same molecule?
A: Active

Q: And the microsomal CLint [4]?
A: 1.75 µL/min/mg

Q: And the Activity [5]?
A: Non-Toxic

Q: What about the Activity [6] of the same molecule?
A: 40%
